{"source": "patent US12054457B2", "about": "“Polymorphs of (2S,5R)-5-(2-chlorophenyl)-1-(2′-methoxy-[1,1′-biphenyl]-4-carbonyl)pyrrolidine-2-carboxylic acid and preparation processes thereof” (EPICS THERAPEUTICS, priority 2022, dated 2024)", "assay_type_in_all_cases": "physicochemical", "key": {"[1]": {"assay": "Hygroscopicity: weight gain on storage at fixed relative humidity", "from_the_text": "The previously described solid forms of (2S,5R)-5-(2-chlorophenyl)-1-(2′-methoxy-[1,1′-biphenyl]-4-carbonyl)pyrrolidine-2-carboxylic acid, i.e. the amorphous free acid and the corresponding Na salt, both disclosed in WO2021/250174, are hygroscopic."}, "[2]": {"assay": "Hygroscopicity by dynamic vapor sorption (DVS)", "method": "The determination of the hygroscopicity of crystalline forms I and II was also evaluated by dynamic vapor sorption (DVS).\nThe analyses were performed on a Surface Measurements System DVS Intrinsic. The samples were placed in an open aluminum pan. The analyses were performed at 25° C. Relative humidity (RH) was scanned between 0% RH and 95% RH, with 10% RH steps (40-0-95-0-95). The stability criterion was a variation in mass lower than 0.002% on a 5 min. window, with a minimum step time of 10 min and a maximum of 100 min."}, "[3]": {"assay": "Thermal gravimetric analysis (TGA)", "conditions": "temperature range 10° C.-200° C., 10° C./min, nitrogen purge", "method": "The thermal gravimetric analysis (TGA) experiments were performed on a Mettler Toledo TGA/DSC3+ apparatus. The samples (about 10-30 mg) were placed in a 100 μL aluminum sample pan and crimped with a punctured cover. […]"}, "[4]": {"assay": "Competitive slurry test between form I and form II in isopropyl alcohol", "method": "A competitive slurry test between form I and form II of compound (1) was carried out at 10° C., 20° C., 25° C., 30° C. and 40° C. in isopropyl alcohol.\nMethod. Suspensions of compound (1) under form II, in isopropyl alcohol, were first prepared and equilibrated for 30 min at each of the temperatures to be studied. About 800 μL of the saturated solutions were then sampled, filtered through a 0.2 μm HPTFE filter, and added into a vial containing 50 mg of form I and 50 mg of form II, equipped with a magnetic rod. After 10 seconds, a first sample of the solid phase is taken and analyzed by XRPD to identify the solid phase(s) present. Additional sampling are also performed until only 1 solid phase remains."}, "[5]": {"assay": "Cross-seeding tests in water and n-heptane", "conditions": "25° C., form II suspension seeded with form I", "method": "Cross-seeding tests were carried out in water and n-heptane.\nMethod. Saturated solutions of form II were prepared at 25° C. in water and in n-heptane. The suspensions were then seeded with form I after 45 minutes, and kept under stirring at 25° C. The solid phases in suspensions were then periodically controlled by XRPD."}, "[6]": {"assay": "Thermodynamic stability over time"}, "[7]": {"assay": "Competitive slurry test between form I and form II in n-heptane", "conditions": "10° C., 20° C., 25° C., 30° C. and 40° C.", "method": "A competitive slurry test between form I and form II of compound (1) was carried out at 10° C., 20° C., 25° C., 30° C. and 40° C. in n-heptane.\nMethod. About 1 mL of n-heptane was added into vials containing 40 mg of form I and 40 mg of form II, equipped with a magnetic rod. After 10 seconds, a first sample of the solid phase is taken and analyzed by XRPD to identify the solid phase(s) present. Additional sampling are also performed until only 1 solid phase remains."}}, "note": "Where a name gives a salt, the structure may show the parent alone."}
{"smiles": "COc1ccccc1-c1ccc(C(=O)N2[C@@H](c3ccccc3Cl)CC[C@H]2C(=O)O)cc1", "note": "[Na salt, (2S,5R)-5-(2-chlorophenyl)-1-(2′-methoxy-[1,1′-biphenyl]-4-carbonyl)pyrrolidine-2-carboxylic acid]", "values": [{"measurement": "weight gain", "setting": "[1]; 40% relative humidity, after 14 h", "value": 7, "unit": "wt %"}, {"measurement": "weight gain", "setting": "[1]; 70% relative humidity, 22° C., after 14 h", "value": 20, "unit": "wt %"}]}
{"smiles": "COc1ccccc1-c1ccc(C(=O)N2[C@@H](c3ccccc3Cl)CC[C@H]2C(=O)O)cc1", "note": "[amorphous free acid, (2S,5R)-5-(2-chlorophenyl)-1-(2′-methoxy-[1,1′-biphenyl]-4-carbonyl)pyrrolidine-2-carboxylic acid]", "values": [{"measurement": "weight gain", "setting": "[1]; 40% relative humidity, after 2 days", "value": 3, "unit": "wt %"}, {"measurement": "weight gain", "setting": "[1]; 70-75% relative humidity, room temperature, after 14 h", "value": 8, "unit": "wt %"}, {"measurement": "hygroscopicity (in words)", "setting": "[1]; previously described solid forms", "value": "hygroscopic"}]}
{"smiles": "COc1ccccc1-c1ccc(C(=O)N2[C@@H](c3ccccc3Cl)CC[C@H]2C(=O)O)cc1", "note": "[form I, (2S,5R)-5-(2-chlorophenyl)-1-(2′-methoxy-[1,1′-biphenyl]-4-carbonyl)pyrrolidine-2-carboxylic acid]", "values": [{"measurement": "weight gain", "setting": "[1]; 80% relative humidity, 25° C., after 10 days", "value": 0.09, "unit": "wt %"}, {"measurement": "hygroscopicity (conclusion in words)", "setting": "[2]; DVS and humidity exposure", "value": "non-hygroscopic"}, {"measurement": "weight loss on first desorption stage", "setting": "[2]; DVS, 25° C., 40% RH to 0% RH", "value": "−0.1", "unit": "%"}, {"measurement": "weight gain at the end of the step at 70% RH", "setting": "[2]; DVS, 25° C., first sorption stage (0% RH to 95% RH)", "value": "+0.1%"}, {"measurement": "maximum weight gain at 95% RH", "setting": "[2]; DVS, 25° C., first sorption stage (0% RH to 95% RH), listed as crystalline form I", "value": "+0.7%"}, {"measurement": "weight loss (TGA)", "setting": "[3]; listed as crystalline form I", "value": "−0.14", "unit": "%"}, {"measurement": "relative stability of the forms", "setting": "[4]; 10° C., 20° C., 25° C., 30° C. and 40° C.", "value": "more stable than form II"}, {"measurement": "relative stability of the forms", "setting": "[5]", "value": "greater stability of form I vs. form II"}, {"measurement": "time for which the form is thermodynamically stable", "setting": "[6]", "value": "at least 6 months"}]}
{"smiles": "COc1ccccc1-c1ccc(C(=O)N2[C@@H](c3ccccc3Cl)CC[C@H]2C(=O)O)cc1", "note": "[form II, (2S,5R)-5-(2-chlorophenyl)-1-(2′-methoxy-[1,1′-biphenyl]-4-carbonyl)pyrrolidine-2-carboxylic acid]", "values": [{"measurement": "maximum weight gain at 95% RH", "setting": "[2]; DVS, 25° C., first sorption stage (0% RH to 95% RH), listed as crystalline form II", "value": "+0.4%"}, {"measurement": "weight loss (TGA)", "setting": "[3]; listed as crystalline form II", "value": "−0.2", "unit": "%"}, {"measurement": "solid phase present in suspension (XRPD)", "setting": "[4]; 10-40° C., first sampling after 10 seconds", "value": "not visible anymore in the suspensions since the first sampling"}, {"measurement": "solid phase conversion (XRPD)", "setting": "[7]", "value": "conversion of form II into form I"}]}
